In the assay the target is T1, ANO1 (Homo sapiens, UniProt Q5XXA6).
T1 sequence (Q5XXA6 1-986): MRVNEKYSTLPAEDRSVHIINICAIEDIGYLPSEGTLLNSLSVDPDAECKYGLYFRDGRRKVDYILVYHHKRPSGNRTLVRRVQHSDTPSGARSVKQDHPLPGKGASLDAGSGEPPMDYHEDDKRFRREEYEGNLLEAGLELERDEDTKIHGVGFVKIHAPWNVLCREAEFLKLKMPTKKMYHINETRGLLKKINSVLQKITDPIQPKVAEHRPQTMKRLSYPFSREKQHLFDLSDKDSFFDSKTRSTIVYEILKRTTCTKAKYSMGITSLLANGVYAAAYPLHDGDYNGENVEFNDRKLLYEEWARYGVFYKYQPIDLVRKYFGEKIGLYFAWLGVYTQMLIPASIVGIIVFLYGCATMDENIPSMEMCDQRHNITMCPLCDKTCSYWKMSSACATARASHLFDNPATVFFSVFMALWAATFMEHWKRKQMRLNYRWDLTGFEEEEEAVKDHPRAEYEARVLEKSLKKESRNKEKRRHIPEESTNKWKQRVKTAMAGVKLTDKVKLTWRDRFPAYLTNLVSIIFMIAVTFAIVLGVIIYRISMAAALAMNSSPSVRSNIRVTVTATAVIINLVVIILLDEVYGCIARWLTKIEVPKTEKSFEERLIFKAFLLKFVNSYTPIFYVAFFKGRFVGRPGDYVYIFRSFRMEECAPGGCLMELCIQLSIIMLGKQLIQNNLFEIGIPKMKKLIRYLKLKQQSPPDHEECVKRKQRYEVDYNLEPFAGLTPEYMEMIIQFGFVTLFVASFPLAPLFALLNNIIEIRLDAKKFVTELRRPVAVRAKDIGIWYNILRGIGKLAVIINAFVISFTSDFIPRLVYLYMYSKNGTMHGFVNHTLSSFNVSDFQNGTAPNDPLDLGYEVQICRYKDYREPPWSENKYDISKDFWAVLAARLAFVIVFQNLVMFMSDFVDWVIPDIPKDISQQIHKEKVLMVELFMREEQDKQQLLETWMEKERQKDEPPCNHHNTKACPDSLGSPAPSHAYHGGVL
Description: YFP fluorescence quenching in FRT cells expressing human ANO1; also Ussing chamber and whole-cell patch clamp in HEK293T. It is filed as cell-based. (In general: Patch clamp records ionic current or voltage across a cell membrane.)

For two compounds, IC50 results are on record in publication PMC9862168, “Inhibition of ANO1 by Cis- and Trans-Resveratrol and Their Anticancer Activity in Human Prostate Cancer PC-3 Cells” (International Journal of Molecular Sciences, 2023).

In general, IC50 refers to the concentration needed to halve the response being measured. Low values mean greater potency, high ones weaker potency.

`Oc1ccc(/C=C\c2cc(O)cc(O)c2)cc1` [cis-resveratrol] gave an IC50 of 10.6 µM.

Compound `Oc1ccc(/C=C/c2cc(O)cc(O)c2)cc1` [trans-resveratrol] yielded an IC50 of 102 µM.
